Assays:
[1] = Sensory evaluation of chewing gums (quality and time-intensity of sweetness); assay type: in vivo; settings: in chewing gum, versus aspartame or sucralose
Protocol: Chewing gums sweetened individually with monatin, aspartame and sucralose were prepared in stick gum format of mint flavor. The gums were prepared to be iso-sweet and evaluated for quality of sweet taste and time-intensity of sweetness delivery.
A standard method of manufacture was adopted for all three gum formulations, as described.
The method of gum manufacture was as follows: • Pre-warm the gum base to 40-45° C. and then add to Z-blade mixer and mix • Sieve sorbitol powder • Remove a portion of the sorbitol, disperse sweetener in that portion and mix thoroughly • Return sweetener/sorbitol mix to remaining bulk of sorbitol powder and mix thoroughly • Mix lycasin and glycerol into a bowl and pre-heat to 50° C. • Add sorbitol powder to the Z-blade mixer containing the gum base • Add lycasin/glycerol and flavor to the Z-blade and mix for 20 minutes • Remove gum from Z-blade mixer • Roll to a thickness of 1.5 mm using a mechanical roller • Dust with talc in the ratio 3 g talc to 100 g gum • Cut into sticks measuring 19 mm×73 mm • Wrap individual sticks in foil Sensory Evaluation
Chewing gum compositions were evaluated by a panel of trained sensory assessors (n 4), all very experienced in the formal sensory evaluation of chewing gums, including an evaluation for time/intensity parameters. Qualitative and temporal characteristics of the gum's flavor and sweetness were evaluated.

[2] = Stability of monatin at pH 3 with increasing temperatures; assay type: physicochemical; settings: synthetic monatin
Protocol: A sample of synthetic monatin was subjected to pH 3 at temperatures of 25° C., 50° C. and 100° C. At room temperature and pH 3, a 14% loss in monatin was observed over a period of 48 hours. This loss was attributed to lactone formation. At 50° C. and pH 3, a 23% loss in monatin was observed over a period of 48 hours. This loss was attributed to lactone formation and the buildup of an unknown compound after about 15.5 minutes. […] The major detectable component was an unknown at 15.5 minutes.

With `NC(CC(O)(Cc1c[nH]c2ccccc12)C(=O)O)C(=O)O` (stereo not shown) [Monatin, 2-hydroxy-2-(indol-3-ylmethyl)-4-aminoglutaric acid] the “time/intensity profile for sweetness” value [1] was “very clearly superior to either aspartame or sucralose”, the loss in monatin ([2]; 50° C., pH 3, 48 hours) was 23% and the loss in monatin ([2]; 100° C., pH 3, after 24 hours) was “nearly all monatin was lost”. It also gave a loss in monatin ([2]; room temperature (25° C.), pH 3, 48 hours) of 14%.

Source: patent publication US20050170041A1, “Chewing gum compositions comprising monatin and methods for making same” (Cargill, Inc., priority 2003, published 2005)
